{
  "source": "patent US8642548B2",
  "about": "(Mannkind Corporation, priority 2009, dated 2014)",
  "assay": "Phase 1a trial of GLP-1/FDKP inhalation powder: insulin, glucose, gastric emptying",
  "format": "in vivo, human",
  "data": [
    {"smiles": "CC[C@H](C)[C@H](NC(=O)[C@H](Cc1ccccc1)NC(=O)[C@H](CCC(=O)O)NC(=O)[C@H](CCCCN)NC(=O)[C@H](C)NC(=O)[C@H](C)NC(=O)[C@H](CCC(N)=O)NC(=O)CNC(=O)[C@H](CCC(=O)O)NC(=O)[C@H](CC(C)C)NC(=O)[C@H](Cc1ccc(O)cc1)NC(=O)[C@H](CO)NC(=O)[C@H](CO)NC(=O)[C@@H](NC(=O)[C@H](CC(=O)O)NC(=O)[C@H](CO)NC(=O)[C@@H](NC(=O)[C@H](Cc1ccccc1)NC(=O)[C@@H](NC(=O)CNC(=O)[C@H](CCC(=O)O)NC(=O)[C@H](C)NC(=O)[C@@H](N)Cc1c[nH]cn1)[C@@H](C)O)[C@@H](C)O)C(C)C)C(=O)N[C@@H](C)C(=O)N[C@@H](Cc1c[nH]c2ccccc12)C(=O)N[C@@H](CC(C)C)C(=O)N[C@H](C(=O)N[C@@H](CCCCN)C(=O)NCC(=O)N[C@@H](CCCNC(=N)N)C(N)=O)C(C)C", "note": "[GLP-1, glucagon-like peptide 1]", "values": [
      {"measurement": "mean fasting plasma glucose", "setting": "1.5 mg GLP-1 inhaled, 20 min after dosing, from 85 mg/dL", "result": 70, "unit": "mg/dL"},
      {"measurement": "inhibition of gastric emptying", "setting": "pulmonary administration, dry powder, data not shown", "result": "lack inhibition of gastric emptying"}
    ]}
  ]
}
